Assay results: the NIST ThermoML archive (doi:10.1016/j.fluid.2016.06.011)
± gives the expanded uncertainty stated by the source.

Conditions: Liquid; for vapor or sublimation pressure: Closed cell (Static) method; for mass density: 101.33 kPa, Vibrating tube method

OCC(F)(F)C(F)(F)C(F)(F)C(F)(F)F [2,2,3,3,4,4,5,5,5-nonafluoropentan-1-ol]
Conditions	mass density [kg/m3]	vapor or sublimation pressure [kPa]
278.14 K	–	0.2236 ± 0.011
278.15 K	1689.58 ± 5.6	–
279.15 K	1687.71 ± 5.6	–
280.15 K	1685.83 ± 5.6	–
281.15 K	1683.95 ± 5.6	–
282.15 K	1682.07 ± 5.5	–
283.1 K	–	0.3363 ± 0.011
283.15 K	1680.18 ± 5.5	–
284.15 K	1678.29 ± 5.5	–
285.15 K	1676.39 ± 5.5	–
286.15 K	1674.48 ± 5.5	–
287.15 K	1672.58 ± 5.5	–
288.07 K	–	0.502 ± 0.012
288.15 K	1670.67 ± 5.5	–
289.15 K	1668.76 ± 5.5	–
290.15 K	1666.84 ± 5.4	–
291.15 K	1664.91 ± 5.4	–
292.15 K	1662.98 ± 5.4	–
293.06 K	–	0.7329 ± 0.013
293.15 K	1661.05 ± 5.4	–
294.15 K	1659.11 ± 5.4	–
295.15 K	1657.16 ± 5.4	–
296.15 K	1655.22 ± 5.4	–
297.15 K	1653.26 ± 5.4	–
298.09 K	–	1.07 ± 0.016
298.15 K	1651.3 ± 5.3	–
299.15 K	1649.34 ± 5.3	–
300.15 K	1647.37 ± 5.3	–
301.15 K	1645.39 ± 5.3	–
302.15 K	1643.41 ± 5.3	–
303.1 K	–	1.531 ± 0.018
303.15 K	1641.42 ± 5.3	–
304.15 K	1639.43 ± 5.3	–
305.15 K	1637.43 ± 5.3	–
306.15 K	1635.43 ± 5.2	–
307.15 K	1633.42 ± 5.2	–
308.06 K	–	2.152 ± 0.021
308.15 K	1631.4 ± 5.2	–
309.15 K	1629.38 ± 5.2	–
310.15 K	1627.35 ± 5.2	–
311.15 K	1625.32 ± 5.2	–
312.15 K	1623.28 ± 5.2	–
313.02 K	–	2.979 ± 0.026
313.15 K	1621.23 ± 5.1	–
314.15 K	1619.17 ± 5.1	–
315.15 K	1617.12 ± 5.1	–
316.15 K	1615.05 ± 5.1	–
317.15 K	1612.98 ± 5.1	–
317.98 K	–	4.071 ± 0.032
318.15 K	1610.9 ± 5.1	–
319.15 K	1608.81 ± 5.1	–
320.15 K	1606.72 ± 5.1	–
321.15 K	1604.62 ± 5	–
322.15 K	1602.52 ± 5	–
322.99 K	–	5.496 ± 0.041
323.15 K	1600.4 ± 5	–
324.15 K	1598.29 ± 5	–
325.15 K	1596.16 ± 5	–
326.15 K	1594.03 ± 5	–
327.15 K	1591.88 ± 5	–
327.95 K	–	7.315 ± 0.047
328.15 K	1589.74 ± 4.9	–
329.15 K	1587.59 ± 4.9	–
330.15 K	1585.42 ± 4.9	–
331.15 K	1583.26 ± 4.9	–
332.15 K	1581.08 ± 4.9	–
333.15 K	1578.9 ± 4.9	–
334.15 K	1576.7 ± 4.9	–
335.15 K	1574.51 ± 4.9	–
336.15 K	1572.3 ± 4.8	–
337.15 K	1570.09 ± 4.8	–
338.15 K	1567.87 ± 4.8	–
339.15 K	1565.64 ± 4.8	–
340.15 K	1563.41 ± 4.8	–
341.15 K	1561.17 ± 4.8	–
342.15 K	1558.91 ± 4.8	–
343.15 K	1556.65 ± 4.7	–
344.15 K	1554.39 ± 4.7	–
345.15 K	1552.11 ± 4.7	–
346.14 K	1549.83 ± 4.7	–
347.15 K	1547.45 ± 4.7	–
348.15 K	1545.15 ± 4.7	–
349.15 K	1542.85 ± 4.7	–
350.15 K	1540.53 ± 4.6	–
351.15 K	1538.2 ± 4.6	–
352.15 K	1535.87 ± 4.6	–
353.15 K	1533.52 ± 4.6	–

OCC(F)(F)C(F)(F)C(F)(F)C(F)(F)C(F)(F)F [2,2,3,3,4,4,5,5,6,6,6-undecafluorohexan-1-ol]
Conditions	mass density [kg/m3]	vapor or sublimation pressure [kPa]
278.14 K	–	0.0688 ± 0.01
278.15 K	1746.4 ± 2.8	–
279.15 K	1744.56 ± 2.8	–
280.15 K	1742.69 ± 2.8	–
281.15 K	1740.82 ± 2.8	–
282.15 K	1738.95 ± 2.8	–
283.1 K	–	0.1098 ± 0.01
283.15 K	1737.07 ± 2.8	–
284.15 K	1735.19 ± 2.8	–
285.15 K	1733.3 ± 2.7	–
286.15 K	1731.41 ± 2.7	–
287.15 K	1729.52 ± 2.7	–
288.08 K	–	0.1712 ± 0.01
288.15 K	1727.62 ± 2.7	–
289.15 K	1725.71 ± 2.7	–
290.15 K	1723.81 ± 2.7	–
291.15 K	1721.89 ± 2.7	–
292.15 K	1719.98 ± 2.7	–
293.08 K	–	0.2615 ± 0.011
293.15 K	1718.06 ± 2.7	–
294.15 K	1716.13 ± 2.7	–
295.15 K	1714.2 ± 2.7	–
296.15 K	1712.27 ± 2.7	–
297.15 K	1710.32 ± 2.7	–
298.13 K	–	0.3944 ± 0.011
298.15 K	1708.38 ± 2.7	–
299.15 K	1706.43 ± 2.7	–
300.15 K	1704.47 ± 2.7	–
301.15 K	1702.5 ± 2.6	–
302.15 K	1700.54 ± 2.6	–
303.1 K	–	0.5819 ± 0.012
303.15 K	1698.57 ± 2.6	–
304.15 K	1696.59 ± 2.6	–
305.15 K	1694.61 ± 2.6	–
306.15 K	1692.62 ± 2.6	–
307.15 K	1690.62 ± 2.6	–
308.06 K	–	0.8405 ± 0.014
308.15 K	1688.62 ± 2.6	–
309.15 K	1686.62 ± 2.6	–
310.15 K	1684.61 ± 2.6	–
311.15 K	1682.59 ± 2.6	–
312.15 K	1680.57 ± 2.6	–
313.01 K	–	1.205 ± 0.017
313.15 K	1678.54 ± 2.6	–
314.15 K	1676.51 ± 2.6	–
315.15 K	1674.47 ± 2.6	–
316.15 K	1672.43 ± 2.6	–
317.15 K	1670.38 ± 2.5	–
317.98 K	–	1.708 ± 0.018
318.15 K	1668.32 ± 2.5	–
319.15 K	1666.26 ± 2.5	–
320.15 K	1664.19 ± 2.5	–
321.15 K	1662.11 ± 2.5	–
322.15 K	1660.03 ± 2.5	–
322.93 K	–	2.349 ± 0.022
323.15 K	1657.95 ± 2.5	–
324.15 K	1655.85 ± 2.5	–
325.15 K	1653.75 ± 2.5	–
326.15 K	1651.65 ± 2.5	–
327.15 K	1649.54 ± 2.5	–
327.93 K	–	3.25 ± 0.025
328.15 K	1647.42 ± 2.5	–
329.15 K	1645.29 ± 2.5	–
330.15 K	1643.16 ± 2.5	–
331.15 K	1641.02 ± 2.5	–
332.15 K	1638.87 ± 2.5	–
333.15 K	1636.72 ± 2.4	–
334.15 K	1634.57 ± 2.4	–
335.15 K	1632.41 ± 2.4	–
336.15 K	1630.23 ± 2.4	–
337.15 K	1628.06 ± 2.4	–
338.15 K	1625.88 ± 2.4	–
339.15 K	1623.69 ± 2.4	–
340.15 K	1621.49 ± 2.4	–
341.15 K	1619.29 ± 2.4	–
342.15 K	1617.08 ± 2.4	–
343.15 K	1614.86 ± 2.4	–
344.15 K	1612.64 ± 2.4	–
345.15 K	1610.41 ± 2.4	–
346.15 K	1608.17 ± 2.4	–
347.15 K	1605.92 ± 2.4	–
348.15 K	1603.67 ± 2.3	–
